One assay has as its system Botrytis cinerea. Put plainly: microbe, parasite or virus in culture. Conditions: 72 hours. Format: cell-based. Here is the method: Mycelia fragments or conidia suspensions of a fungus, prepared either freshly from liquid cultures of the fungus or from cryogenic storage, are directly mixed into nutrient broth. DMSO solutions of the test compound (max. 10 mg/mL) is diluted with 0.025% Tween20 by factor 50 and 10 µL of this solution is pipetted into a microtiter plate (96-well format). […] The test plates are incubated in the dark at 24° C. and 96% relative humidity (rh). The inhibition of fungal growth is determined photometrically and visually after 3 - 7 days, depending on the pathosystem, and percent antifungal activity relative to the untreated check is calculated.
Conidia of the fungus from cryogenic storage were directly mixed into nutrient broth (PDB potato dextrose broth). After placing a DMSO solution of the test compositions into a microtiter plate (96-well format), the nutrient broth containing the fungal spores was added.

A further assay relates to Alternaria solani. Format: cell-based. The note with it: 48 hours. Here is the method: Mycelia fragments or conidia suspensions of a fungus, prepared either freshly from liquid cultures of the fungus or from cryogenic storage, are directly mixed into nutrient broth. DMSO solutions of the test compound (max. 10 mg/mL) is diluted with 0.025% Tween20 by factor 50 and 10 µL of this solution is pipetted into a microtiter plate (96-well format). The nutrient broth containing the fungal spores/mycelia fragments is then added to give an end concentration of the tested compound. The test plates are incubated in the dark at 24° C. and 96% relative humidity (rh). The inhibition of fungal growth is determined photometrically and visually after 3 - 7 days, depending on the pathosystem, and percent antifungal activity relative to the untreated check is calculated.
Conidia of the fungus from cryogenic storage were directly mixed into nutrient broth (PDB potato dextrose broth). After placing a DMSO solution of the test compositions into a microtiter plate (96-well format) the nutrient broth containing the fungal spores was added.

*1 amine or outer side, *2 acyl side, *3 side chain or, on linkers, in order; H or OH if unused. Where a SMILES comes first, the peptide text is derived from it. [ ]: non-standard residue; d: D form. ξ: configuration not given here. ξNMeVal(3-OH) = CNC(C(=O)O)C(C)(C)O; NMeF = CN[CH](Cc1ccccc1)C(=O)O; X1 = CCC(C)C(O[*:1])C(=O)[*:2]; NMeV = CN[CH](C(=O)O)C(C)C

Turning to `CC(C)NC(=O)N1CC(=O)N(c2cc(Cl)cc(Cl)c2)C1=O` [Iprodione, iprodione], the inhibition (as a rule, the drop in the measured response relative to a control, in per cent) at 0.125 ppm in the assay with Botrytis cinerea (Botrytis cinerea, Iprodione 0.125 ppm alone, read-out: (B) inhibition) is 4%. The inhibition at 0.25 ppm in the assay on Botrytis cinerea (Botrytis cinerea, Iprodione 0.250 ppm alone, read-out: (B) inhibition) was found to be 0%.
For `N#Cc1c[nH]cc1-c1cccc2c1OC(F)(F)O2` [Fludioxonil, fludioxonil], in the assay on Botrytis cinerea (Botrytis cinerea, Fludioxonil 0.0063 ppm alone, read-out: (B) inhibition), the inhibition at […] worked out at 0%.
For the molecule `CCC(C)C1NC(=O)C2CCCN2C(=O)C(Cc2ccccc2)N(C)C(=O)C(Cc2ccccc2)NC(=O)C(C(C)C)N(C)C(=O)C(C(C)CC)OC(=O)C(C(C)(C)O)N(C)C(=O)C(CC(C)C)NC(=O)C(C(C)C)N(C)C1=O` (centres unmarked) [Aureobasidin A] (cyclo([ξNMeVal(3-OH)][X1][NMeV]F[NMeF]PI[NMeV]L); configuration not given here), the “(A) inhibition” value with Botrytis cinerea (Aureobasidin A 0.01 ppm alone, fludioxonil table) was 22%; in the assay on Botrytis cinerea (Aureobasidin A 0.01 ppm alone, growth inhibition, photometric, iprodione table) it was 18%; with Botrytis cinerea (Aureobasidin A 0.02 ppm alone, iprodione table), 60%; in the assay with Alternaria solani (Aureobasidin A 0.005 ppm alone, growth inhibition, photometric), 11%.
On to `C=CCOC(Cn1ccnc1)c1ccc(Cl)cc1Cl` (centres unmarked) [Imazalil], for which the “(B) inhibition” value in the assay with Alternaria solani (component (B) 0.5 ppm alone) worked out at 35%.

The values are drawn from patent US20230240291A1, “FUNGICIDAL COMPOSITIONS” (SYNGENTA CROP PROTECTION AG, priority 2020, published 2023).
